Data published in paper PMC11251039, “Harnessing cholesterol uptake of malaria parasites for therapeutic applications” (EMBO Molecular Medicine, 2024).
Values joined by “and” are separate entries in the source; they are usually repeats but may differ in a detail not shown here. Equal values may be shown once. Read-outs that look alike come from different tables or passages of the source.

Experiments:
[1] = test system: asexual P. falciparum 3D7 wild-type parasites; assay: P. falciparum asexual growth inhibition assay (SYBR Safe DNA replication); format: cell-based, Plasmodium falciparum; set-up: Figure 5B dose-response source data (growth, replicate values): unit not given here; settings: for IC50: read-out: IC50, P. falciparum asexual growth inhibition; for Figure 5B dose-response source data (growth, replicate values): individual replicates
Protocol: P. falciparum asexual parasite assays commenced with ring-stage parasites at 1% parasitaemia and 1% haematocrit. 200 nM chloroquine (Sigma C6628) or artesunate (Sigma A3731) was used as a no-growth control. DNA replication (indicating growth) was measured at the specified time using SYBR Safe DNA Gel Stain (Invitrogen 33102) and a fluorescence microplate reader (Smilkstein et al, [2004]; Spry et al, [2013]). […]
Growth and Viability Inhibition Assays:
Plasmodium falciparum Growth Inhibition Assays:
P. falciparum parasites were maintained under routine culture conditions in red blood cells and RPMI 1640-Hepes with Glutamax, supplemented with 10 mM D-glucose, 480 μM hypoxanthine, 20 μg/mL gentamicin, 0.375% (w/v) AlbuMAXTM II (Thermo Fisher 11021029), and 2.5% v/v heat-inactivated human serum (17). Cultures were maintained at 37 °C […]
wildtype parasites except for the ring stage survival assay, as specified. Cultures were synchronised with 5% w/v D-sorbitol (18).
Growth inhibition was investigated according to methods described by Smilkstein et al. (19) with modifications by Spry et al. (20). Compounds or solvent controls (DMSO, ethanol, or ethyl acetate) were serially diluted 2-fold across flat-bottom 96-well plates. Culture media without compound was used as a negative control. 200 nM chloroquine (Sigma C6628) or artesunate (Sigma A3731) was used as a positive control to determine background fluorescence. The parasitaemia of a culture containing predominantly ring stage parasites was counted by Giemsa smear. The parasitaemia was adjusted to 1% by addition of fresh uRBCs and added to the plate at a final haematocrit of 1%, with 200 µL per well. The plates were incubated at 37 °C under humid microaerophilic conditions. After 24, 48, or 72 hours, the plates were transferred to a -18 °C freezer to stop the assay and lyse cells. Plates were thawed and lysate was mixed 1:1 with SYBR Safe DNA Gel Stain (Invitrogen 33102) (final concentration 1/10,000) diluted in lysis buffer (20 mM TRIS, 5 mM EDTA, 0.008% w/v Saponin, 0.08% w/v Triton-X 100, pH 7.5). Fluorescence was detected at 490 nm excitation/ 520 nm emission on a FLUOstar Optima fluorescence plate reader (BMG Labtech).

[2] = test system: human embryonic kidney cells (HEK293); assay: Human embryonic kidney cell viability assay (MTT); format: cell-based; settings: for IC50: Homo sapiens, 96 h, HEK293, read-out: IC50, human embryonic kidney cell inhibition (viability); for Dose-response data points (Figure 5C): replicate data points
Protocol: HEK293 cell viability assays commenced with 5000 cells per well. 10 µg/mL cycloheximide was used as a no-growth control. Metabolic capacity (indicating viability) was measured in an absorbance microplate reader after incubation with 0.45 mg/mL methylthiazolyldiphenyl-tetrazolium bromide (MTT; Sigma M2128) for 2 h followed by crystal solubilisation in SDS. […]
Human Embryonic Kidney Cell Viability Assays:
Human Embryonic Kidney Cell (HEK293) culture:
The HEK293 cell line was maintained under routine culture conditions in DMEM containing 3.7 g/L NaHCO3 supplemented with 10% FBS, 200 μM glutamine, 100 units/mL penicillin, and 100 μg/mL streptomycin at 37 °C in a humidified 5% CO2 incubator.
Cells were detached from a flask using 0.25% Trypsin with 0.2 g/L EDTA (Sigma T4049) and washed with culture media containing no phenol red. Cells were incubated with a serial dilution of each compound, or media/DMSO alone. The protein synthesis inhibitor cycloheximide (Sigma 01810) at 10 µg/mL was used as a positive control to determine background absorbance. 5,000 cells were seeded in each well. After 96 hours, 0.45 mg/mL methylthiazolyldiphenyl-tetrazolium bromide (MTT; Sigma M2128) was added and incubated for a further two hours, before mixing 1.1:1 with 10% w/v sodium dodecyl sulfate (SDS) to solubilise crystals and freezing the plate at -18 °C to stop the assay. […]

[3] = Plasmodium falciparum, 3D7, 72 h, 72 h

Compound	IC50 [1, 3]	IC50 [2]	Figure 5B dose-response source data (growth, replicate values) ([1]; Concentration 12.5 uM)	Figure 5B dose-response source data (growth, replicate values) ([1]; Concentration 25 uM)	Dose-response data points (Figure 5C) ([2]; 3.125000 μM)	Dose-response data points (Figure 5C) ([2]; 6.250000 μM)	Dose-response data points (Figure 5C) ([2]; 12.500000 μM)	Dose-response data points (Figure 5C) ([2]; 25.000000 μM)	Dose-response data points (Figure 5C) ([2]; 50.000000 μM)	Dose-response data points (Figure 5C) ([2]; 100.000000 μM)	Figure 5B dose-response source data (growth, replicate values) ([1]; Concentration 1.5625 uM)	Figure 5B dose-response source data (growth, replicate values) ([1]; Concentration 3.125 uM)	Figure 5B dose-response source data (growth, replicate values) ([1]; Concentration 200 uM)	Figure 5B dose-response source data (growth, replicate values) ([1]; Concentration 400 uM)	further results
CC(C)(C)OOCCO[C@H]1CC[C@H]2[C@@H]3CC=C4C[C@@H](O)CC[C@]4(C)[C@H]3CC[C@]12C [C-17-perox]	480 nM	31.3 µM													IC50 ([1]; 72 h): 500 nM; Fold difference in IC50 HEK293 compared to P. falciparum ([2]; 96 h HEK293 vs 72 h P. falciparum): ~ 60 fold
CC(C)(C)OOCCO[C@H]1CC[C@H]2[C@@H]3CC=C4C[C@@H](O)CC[C@]4(C)[C@H]3CC[C@]12C [BC86D]			2.181 and -0.01995 and -1.157	4.45 and 0.3217 and -1.979	115.5 and 95.86 and 88.3 and 98.59 and 112 and 99.93 and 104.6 and 105.3 and 96.8 and 121.6 and 126.6 and 132.2	96.33 and 95.87 and 97.03 and 100.5 and 103.4 and 96.23 and 94.82 and 98.4 and 99.62 and 111.9 and 133.1 and 110.9	82.46 and 90.77 and 77.92 and 80.03 and 95.9 and 97.58 and 94.64 and 94.52 and 89.57 and 87.62 and 85.62 and 86.13	69.58 and 78.66 and 69.32 and 83.79 and 87.18 and 91.53 and 75.15 and 72.67 and 65.58 and 76.71 and 79.77 and 75.18	3.07 and 5.347 and 9.422 and 2.15 and 5.359 and 78.86 and -3.535 and -3.352 and -3.7 and -3.023 and -3.058 and -2.513	-1.036 and -1.804 and -2.143 and -2.292 and -2.356 and -1.995 and -3.811 and -3.706 and -3.888 and -2.988 and -3.04 and -3.163					Figure 5B dose-response source data (growth, replicate values) ([1]; Concentration 0.019532 uM): 105.3 and 96.53 and 86.36 and 94.74 and 88.38 and 91.4; Figure 5B dose-response source data (growth, replicate values) ([1]; Concentration 0.039063 uM): 101.2 and 93.9 and 88.17 and 67.71 and 70.53 and 73.82 and 95.83 and 90.15 and 93.44; Figure 5B dose-response source data (growth, replicate values) ([1]; Concentration 0.078125 uM): 97.22 and 94.27 and 90.34 and 67.69 and 67.82 and 69.83 and 95.38 and 88.24 and 94.29; Figure 5B dose-response source data (growth, replicate values) ([1]; Concentration 0.15625 uM): 96.36 and 93.34 and 87.86 and 61.44 and 62.01 and 63.2 and 95.83 and 94.74 and 95.36; Figure 5B dose-response source data (growth, replicate values) ([1]; Concentration 0.3125 uM): 73 and 78.58 and 67.15 and 39.54 and 44.2 and 46.55 and 91.73 and 92.12 and 93.7; Figure 5B dose-response source data (growth, replicate values) ([1]; Concentration 0.625 uM): 35.28 and 38.38 and 34.74 and 19.93 and 23.01 and 29.36 and 61.25 and 65.6 and 67.6; Figure 5B dose-response source data (growth, replicate values) ([1]; Concentration 1.25 uM): 21.76 and 22.71 and 19.11 and 8.627 and 13.04 and 18.09 and 18.17 and 19.23 and 20.29; Figure 5B dose-response source data (growth, replicate values) ([1]; Concentration 2.5 uM): 14.75 and 15.93 and 13.24 and 1.608 and 6.601 and 8.38 and 7.495 and 10.61 and 8.324; Figure 5B dose-response source data (growth, replicate values) ([1]; Concentration 5 uM): 10.45 and 16.02 and 6.128 and -6.852 and -3.181 and -0.1793 and 5.173 and 6.43 and 3.972; Figure 5B dose-response source data (growth, replicate values) ([1]; Concentration 10 uM): 4.733 and -2.356 and 1.324 and -0.2487 and 0.35 and -1.359 and 1.305 and 0.4257 and 0.3494
C[C@]12CC[C@H](O)CC1=CC[C@@H]1[C@@H]2CC[C@]2(C)C(=O)CC[C@@H]12 [DHEA, Dehydroepiandrosterone]	150000 nM	88.5 µM	97.83 and 97.77 and 98.63 and 101.4 and 104.7 and 102.2 and 102.3 and 100.6 and 97.67	97.33 and 98.84 and 99.51 and 104.1 and 102.5 and 109.8 and 97.3 and 98.4 and 101.2	108.5 and 113.8 and 102.3 and 90.3 and 90.17 and 89.76	115 and 79.4 and 102.8 and 86.08 and 90.81 and 85.1	83.96 and 112.7 and 100.9 and 95.11 and 92.95 and 84.24 and 113.9 and 109.3 and 94.8 and 88.3 and 83.73 and 81.43	74.02 and 110.4 and 109.9 and 89.17 and 79.81 and 87.49 and 124 and 119.6 and 106.3 and 78.12 and 83.41 and 71.52	65.27 and 101.5 and 98.29 and 73.76 and 69.18 and 75.02 and 111.3 and 62.75 and 93.36 and 87.06 and 86.25 and 84.64	28.83 and 48.06 and 53.97 and 38.87 and 26.11 and 38.89 and 29.34 and 31.58 and 34.33 and 61 and 65.6 and 64	105 and 100.9 and 101.2 (2×) and 104.8 and 107.1 and 104 and 104.2 and 97.24	99.54 and 98.59 and 99.35 and 103.6 and 96.02 and 105.9 and 103.9 and 101.1 and 100.2	36.08 and 37.08 and 31 and 29.85 and 51.4 and 44.23 and 15.92 and 13.39 and 11.5	0.02245 and -0.2944 and -1.594 and 1.899 and 4.652 and 1.525 and -5.885 and -7.232 and -8.092	Figure 5B dose-response source data (growth, replicate values) ([1]; Concentration 6.25 uM): 94.64 and 99.33 and 101.7 and 100.2 (2×) and 103.5 and 102.7 and 100.1 and 101.2; Figure 5B dose-response source data (growth, replicate values) ([1]; Concentration 50 uM): 91.17 and 88.79 and 89.21 and 91.36 and 96.36 and 97.35 and 94.23 and 92.68 and 93.65; Figure 5B dose-response source data (growth, replicate values) ([1]; Concentration 100 uM): 80.03 and 78.97 and 77.22 and 68.91 and 88.77 and 89.83 and 76.17 and 73.25 and 71.62; Dose-response data points (Figure 5C) ([2]; 200.000000 μM): -0.4301 and 3.655 and 7.381 and -0.1582 and -0.5868 and -0.7801 and -3.647 and -3.757 and -3.702 and -0.3542 and 0.648 and 0.1847; Dose-response data points (Figure 5C) ([2]; 400.000000 μM): -1.929 and -2.654 and -2.355 and -0.05272 and -1.637 and -1.302 and -3.718 and -4.096 and -4.009 and -3.542 and -3.411 and -3.648
CC(C)CCC[C@@H](C)[C@H]1CC[C@H]2[C@@H]3CC=C4C[C@@H](O)CC[C@]4(C)[C@H]3CC[C@]12C [Cholesterol, cholesterol]											98.13 and 98.43 and 98.36 and 100.5 and 96.82 and 110.3 and 108.8 and 107.2 and 96.68 and 92.68 and 85.1 and 96.36 and 98.17 and 96.8 and 101.5 and 98.35 and 94.77 and 99.77 and 99.63 and 99.09 and 97.58 and 93.8 and 94.68	99.65 and 95.37 and 96.75 and 101.4 and 107.2 and 106.1 and 106.5 and 104.9 and 98.31 and 99.02 and 98.46 and 95.92 and 100.7 and 98.47 and 104.4 and 98.86 and 101.6 and 91.05 and 95.88 and 95.01 and 101.3 and 96.56 and 97.39	102.2 and 101.3 and 99.63	106.3 and 99.95 and 99.03 and 90.17	Figure 5B dose-response source data (growth, replicate values) ([1]; Concentration 0.1953125 uM): 97.65 and 98.85 and 95.16 and 99.46 and 98.26 and 98.24 and 102.6 and 96.06 and 94.45; Figure 5B dose-response source data (growth, replicate values) ([1]; Concentration 0.390625 uM): 95.8 and 101 and 95.94 and 100.9 and 102.2 and 97.7 and 93.65 and 98.46 and 98.54 and 95.82 and 88.53 and 95.33 and 96.33 and 97.81 and 92.68; Figure 5B dose-response source data (growth, replicate values) ([1]; Concentration 0.78125 uM): 99.57 and 96.48 and 97.66 and 98.24 and 100.6 and 107.5 (2×) and 107.4 and 98.35 and 96.07 and 96.59 and 98.18 and 96.9 and 98.19 and 100.3 and 96.94 and 95.15 and 100.1 and 95.95 and 95.21 and 98.02 and 100 and 96.51; IC50 ([1]; Plasmodium falciparum, 3D7, 72 h): > 400000 nM
